# Results reported in PMC10004487, “Flavonoids from the Roots of Sophora flavescens and Their Potential Anti-Inflammatory and Antiproliferative Activities” (Molecules, 2023).
# Counter-ions that a name gives are not always drawn. Like-named read-outs stand apart in the source and are kept apart here.
# Assays:
# HepG2 cells = experiment: Antiproliferative MTT assay on HepG2 cell lines; format: cell-based, Human; settings: read-out: IC50 (50% inhibitory concentration), antiproliferative effect, 24 and 48 h of incubation, mean ± SD of 3 tests
# Description: Inhibitory rate (%) = [(O.DDrug − O.DBlank)/(O.DControl − O.DBlank)] ×100%. The IC50 values were calculated with probit analysis using software SPSS version 21.0.
# (§1) Murine macrophages (RAW 264.7) were cultured in Dulbecco’s modified Eagle’s medium (DMEM) supplemented with the addition of 10% fetal bovine serum (FBS) and 1% streptomycin (10,000 μg/mL)-penicillin (10,000 U/mL) at 37 °C in a humidified incubator under 5% CO2. HepG2 cells were cultured at 37 °C under 5% CO2. The optimal fermentation culture medium comprised DMEM, 1% mixed penicillin (10,000 U mL^−1), 1% HEPES (BioFroxx, Hesse, Einhausen), and 10% fetal bovine serum (FBS), as well as streptomycin (SM) (10,000 μg/mL^−1) fluid. In all experiments, cells were left to acclimate for 24 h before any treatments.
# Briefly, the cells were incubated in 96-well microplates (1 × 10^5 per well) and allowed to adhere for 24 h before drug administration. Then, the cell lines were treated with test compounds 1–36 at five concentrations (3.12, 6.25, 12.5, 25, and 50 μM). At 24 and 48 h of incubation, cells were treated with MTT (200 µL, 5.0 mg/mL) and dissolved in the culture medium, for 1 h under at 37 °C under a 5% CO2 humidified atmosphere. The MTT was then removed carefully and resolved with DMSO (150 μL/well). Optical density was recorded using a Thermo Fisher Scientific microplate reader at 490 nm. Cisplatin (CP) and medium were used as positive and negative controls, respectively.
# [1] = Cytotoxicity on RAW 264.7 macrophages (MTT cell viability); format: cell-based, Murine; settings: mouse
# Description: The potential cytotoxicity of compounds on RAW 264.7 macrophages cells was determined before executing further studies. Macrophage cells were treated with compounds, and a mitochondria colorimetric (MTT) assay was used to test cell survival.
# as §1
# To measure cell viability, an MTT assay was performed. […] After washing twice with a PBS buffer, 20 μL of the MTT solution was added to each well, and incubation continued for 4 h. Optical density (O.D) was measured at 490 nm by a microplate reader (Thermo Fisher Scientific, Waltham, MA, USA). The relative cell viability was calculated in contrast to the normal control group.
# [2] = tested on: LPS-induced NO production in RAW 264.7 macrophages; experiment: Inhibition of LPS-induced NO production in macrophages (Griess reagent); format: cell-based, Murine; settings: Mus musculus, RAW264.7, read-out: IC50 (50% inhibitory concentration), NO production inhibition
# Description: NO is one of the immune effectors used by macrophages to defend our bodies against intracellular pathogens. […] NO production inhibition (%) = [(O.DLPS − O.DDrug)/(O.DLPS − O.DBlank)] × 100%. The determination of IC50 was calculated using probit analysis in SPSS version 21.0.
# as §1
# Activated macrophage cells could express inducible nitric oxide synthase (iNOS), catalyzing the production of NO from L-arginine. […] Afterward, costimulation for 24 h at 37 °C was carried out in an incubator under 5% CO2. Then, Griess reagents I and II (100 μL) were mixed with cell culture medium (70 μL). Prior to measuring the optical density, plates were incubated at room temperature for 10 min, and the absorbance at 540 nm was measured using a Thermo Fisher Scientific microplate reader. N(G)-monomethyl-L-arginine, monoacetate salt (L-NMMA), and the medium were used as positive and negative controls, respectively.
# [3] = RAW 264.7 pretreated with compound 1 h, then LPS 1 μg/mL for 24 h, Griess, mean ± SD of 3 tests
IC50 (HepG2 cells; Homo sapiens) [µM],"IC50 [2, 3] [µM]",Compound,CC50 [1] [µM],further results
37.6 ± 0.7,,"CC(C)=CCc1c(O)cc(O)c2c1O[C@H](c1ccc(O)cc1O)CC2=O [Compound 5, leachianone G]",,
,9.3 ± 0.7,"CC(C)=CCc1c(O)c(CC=C(C)C)c2c(c1O)C(=O)C[C@@H](c1ccc(O)cc1O)O2 [Compound 15, kushenol E]",18.8 ± 0.3,
26.4 ± 0.3,,"COc1ccc(-c2oc3c(CC=C(C)C)c(O)cc(O)c3c(=O)c2O)cc1O [Compound 21, 8-(3,3-dimethylallyl)-tamarixetin]",,
,14.4 ± 0.4,"C=C(C)[C@H](CC=C(C)C)Cc1c(O)cc(OC)c2c1O[C@H](c1ccc(O)cc1O)CC2=O [Compound 13, kurarinone]",33.8 ± 1,
41.4 ± 0.6,12.4 ± 0.9,"CC(C)=CCc1c(O)cc(O)c2c(=O)c(O)c(-c3ccc(O)cc3)oc12 [Compound 19, noranhyoicaritin]",> 50,
30.8 ± 1.1,,"C=C(C)C(CC=C(C)C)Cc1c(O)c(CC=C(C)C)c(O)c2c1O[C@H](c1ccc(O)cc1O)CC2=O (stereo partly shown) [Compound 16, kushenol B]",,

# Second part, the compound before the results:
Compound,IC50 (HepG2 cells; Homo sapiens) [µM],"IC50 [2, 3] [µM]",CC50 [1] [µM],further results
xanthogalenol [Compound 34],,,,IC50 (HepG2 cells): 48.6 ± 0.8 µM
"CC(C)=CCc1c(O)cc(O)c2c1O[C@H](c1ccc(O)cc1)CC2=O [Compound 1, sophorafiavanone B]",34.9 ± 0.3,,,
"[H]/N=C(/NC)NCCC[C@H](N)C(=O)O [L-NMMA, N(G)-monomethyl-L-arginine, monoacetate salt, reference compound]",,,,"CC50 ([1]; RAW 264.7 macrophages, MTT, compound 1 h then LPS 1 μg/mL 24 h, mean ± SD of 3 tests): > 50 µM; IC50 [2]: 21.8 ± 0.9 µM"
"C=C(C)C(CC=C(C)C)Cc1c(O)cc(O)c2c(=O)c(O)c(-c3ccc(O)cc3)oc12 (stereo not shown) [Compound 22, 8-lavandulylkaempferol]",0.46 ± 0.1,5.7 ± 0.4,13.8 ± 0.6,
"N.N.[Cl][Pt][Cl] [Cisplatin, reference compound]",,,,IC50 (HepG2 cells): 24.5 ± 0.8 µM
"COc1cc(O)c(CC=C(C)C)c2c1C(=O)CC(c1ccc(O)cc1)O2 (stereo not shown) [Compound 2, isoxanthohumol]",,8.4 ± 0.7,> 50,
"C=C(C)[C@H](CC=C(C)C)Cc1c(O)cc(OC)c2c1O[C@H](c1ccc(O)cc1O)[C@@H](O)C2=O [Compound 29, kushenol I]",,7.2 ± 0.6,20.6 ± 1.1,
